Results reported in patent US6153419A, “Method for quantitative determination of 1,5-anhydroglucitol” (Kyowa Hakko Kogyo Co., Ltd., priority 1996, dated 2000).
Where two headings read alike, the source gives them in different places.

What was measured:
Assay type in all cases: biochemical
[1] = tested on: trehalase derived from Nocardia sp. NK-2067; assay: Effect of metal chelating agents, enzyme inhibitors and metal ions on the novel trehalase
Method: The effect of various metal chelating agents, enzyme inhibitors and metal ions on the enzyme was investigated at a concentration of 1 mM.
(§1) To 1 ml of the substrate solution is added 0.02 ml of an enzyme solution, and reaction is carried out at 37° C. for 30 minutes. The reaction is stopped by heating at 100° C. for 3 minutes. To the reaction mixture is added 1 ml of the color-producing reagent, and reaction is carried out at 37° C. for 20 minutes, followed by measurement of the absorbance at 500 nm. A control solution is prepared by using water instead of the enzyme solution in the above procedure.

[2] = tested on: trehalase derived from Rhodococcus globerulus ATCC 14898; assay: Test Example 1: specificity of inhibition by 1,5-anhydroglucitol; conditions: for Inhibition (%): test sugar 1 mM, 100 mM phosphate buffer pH 7.0, 10 mg/ml trehalose, 10 minutes
Method: (§2) A reaction mixture was prepared by adding 10 mU/ml trehalase prepared in Reference Example 3, 0.81 mg/ml 4-aminoantipyrine, 1 mg/ml EMSE, 30 U/ml glucose oxidase, 10 U/ml peroxidase, and 1 mM test sugar shown in Table 4 to 100 mM phosphate buffer (pH 7.0). After addition of 10 mg/ml trehalose to the reaction mixture and stirring, the change in absorbance at 550 nm was measured with a spectrophotometer.

[3] = tested on: trehalase derived from Nocardia sp. NK-2067; assay: Substrate specificity of the novel trehalase (activity on various substrates); conditions: for Relative activity (%): substrate 1.75 mM, 100 mM phosphate buffer pH 5.5, activity on trehalose defined as 100
Method: The activity of the enzyme on various substrates was measured at a substrate concentration of 1.75 mM in 100 mM phosphate buffer (pH 5.5). The results are shown in Table 1 as relative activities, the activity on trehalose being defined as 100.
The enzyme activity is measured in the following manner.
(§3) Trehalose is dissolved in 100 mM phosphate buffer (pH 5.5) to give a concentration of 12.5 mM.
(§4) Glucose oxidase (Toyobo Co., Ltd., Grade II), peroxidase (Toyobo Co., Ltd., Grade III), 4-aminoantipyrine and phenol are dissolved in water to give final concentrations of 0.04 mg/ml, 0.04 mg/ml, 1.2 mM and 21 mM, respectively.
as §1
(§5) The trehalase activity is expressed by unit, one unit being defined as that amount of the enzyme which will hydrolyze 1 μmol of trehalose at 37° C. in one minute. The activity per milliliter of enzyme solution (U/ml) can be calculated from the net difference in absorbance (enzyme solution-control solution) according to the following equation. [formula]

[4] = tested on: trehalase derived from Nocardia sp. NK-2067; assay: Inhibition specificity of the novel trehalase to various sugars, trehalose as substrate; conditions: sugar at 1.75 mM
Method: The enzyme was also examined for inhibition specificity to various sugars at 1.75 mM using trehalose as a substrate.
as §3, §4, §1, §5

[5] = tested on: trehalase derived from Nocardia sp. NK-2067; assay: Substrate and inhibitor affinity by Lineweaver-Burk plot; conditions: pH 5.5, Lineweaver-Burk plot
Method: The Km value of the enzyme for trehalose at pH 5.5 as determined by Lineweaver-Burk plot [J. Am. Chem. Soc., 56, 658 (1934)] is 6.7 mM.

[6] = tested on: trehalase derived from Nocardia sp. NK-2067; assay: Example 6: inhibition of trehalase, calibration curve; conditions: pH 7.0, FIG. 9
Method: as §2, with “2,” for “3,”, “a sample containing 1,5-anhydroglucitol at a varied concentration” for “1 mM test sugar shown in Table 4”, “increase” for “change”
The same procedure as in Example 3 was repeated, except that trehalase derived from Nocardia sp. prepared in Example 5 was used.

[7] = tested on: trehalose phosphorylase derived from Catellatospora ferruginea FERM BP-4329; assay: Example 1: inhibition of the decomposition activity of trehalose phosphorylase; conditions: pH 7.0, FIG. 5
Method: A reaction mixture was prepared by adding 10 mU/ml trehalose phosphorylase derived from Catellatospora ferruginea prepared in Reference Example 1, 2.5 U/ml […] (Beckman Instruments, Inc.), 5 U/ml glucose-6-phosphate dehydrogenase (Sigma Chemical Co.), 10 mM NADP, and a sample containing 1,5-anhydroglucitol at a varied concentration to 100 mM phosphate buffer (pH 7.0). After addition of 10 mg/ml trehalose to the reaction mixture and stirring, the increase in absorbance at 340 nm was measured with a spectrophotometer.

[8] = tested on: trehalase derived from Rhodococcus globerulus ATCC 14898; assay: Example 4: inhibition of trehalase, calibration curve; conditions: pH 7.0, FIG. 8
Method: as §2, with “2,” for “3,”, “a sample containing 1,5-anhydroglucitol at a varied concentration” for “1 mM test sugar shown in Table 4”, “increase” for “change”
The same procedure as in Example 3 was repeated, except that trehalase derived from Rhodococcus globerulus prepared in Reference Example 3 was used.

[9] = tested on: trehalase derived from Streptomyces aureofaciens ATCC 10762; assay: Example 3: inhibition of trehalase, calibration curve; conditions: pH 7.0, FIG. 7
Method: as §2, with “2,” for “3,”, “a sample containing 1,5-anhydroglucitol at a varied concentration” for “1 mM test sugar shown in Table 4”, “increase” for “change”

[10] = tested on: trehalose phosphorylase derived from Catellatospora ferruginea FERM BP-4329; assay: Example 2: inhibition of the synthesis activity of trehalose phosphorylase; conditions: imidazole buffer pH 7.0, FIG. 6
Method: A reaction mixture (3 ml) was prepared by adding 10 mU/ml trehalose phosphorylase prepared in Reference Example 1, 50 mM glucose, 2 ml of a kit for the determination of inorganic phosphorus (Kyowa Medex Co., Ltd.), and a sample containing 1,5-anhydroglucitol at a varied concentration to 50 mM imidazole buffer (pH 7.0). After addition of 50 mM β-glucose-1-phosphate to the reaction mixture and stirring, the increase in absorbance at 550 nm was measured with a spectrophotometer.

SMILES: [N-]=[N+]=[N-] [Sodium azide]
- Inhibition (%) ([1]; compound at 1 mM): 22.8%

SMILES: O=C1CCC(=O)N1Br [N-Bromosuccinimide]
- Inhibition (%) ([1]; compound at 1 mM): 23.4%

SMILES: OC[C@H]1OC(O)[C@@H](O)[C@@H](O)[C@@H]1O (stereo partly drawn) [D-Mannose]
- Inhibition (%) [2]: 0.5%

SMILES: C[C@H]1OC(O)[C@H](O)[C@@H](O)[C@H]1O (stereo partly drawn) [D-Fucose]
- Inhibition (%) [2]: 0%

SMILES: [Cl-].[Cl-].[Co+2] [CoCl2]
- Inhibition (%) ([1]; compound at 1 mM): 20.4%

SMILES: [Ba+2].[Cl-].[Cl-] [BaCl2]
- Inhibition (%) ([1]; compound at 1 mM): 40.7%

SMILES: CC(=O)N[C@H]1C(O)O[C@H](CO)[C@@H](O)[C@@H]1O (stereo partly drawn) [N-Acetyl-D-glucosamine]
- Inhibition (%) [2]: 0%

SMILES: OC[C@H]1O[C@@](CO)(O[C@H]2O[C@H](CO)[C@@H](O)[C@H](O)[C@H]2O)[C@@H](O)[C@@H]1O [Sucrose]
- Relative activity (%) [3]: 0%
- Inhibition (%) [2]: 0%
- Inhibition (%) [4]: 0%

SMILES: c1cnc2c(c1)ccc1cccnc12 [1,10-Phenanthroline]
- Inhibition (%) ([1]; compound at 1 mM): 88.5%
- Inhibition of the enzyme in words ([1]; summary of Table 3): inhibited

SMILES: N[C@H]1C(O)O[C@H](CO)[C@@H](O)[C@@H]1O (stereo partly drawn) [D-Glucosamine]
- Inhibition (%) [2]: 0%

SMILES: O=S(=O)([O-])[O-].[Zn+2] [ZnSO4]
- Inhibition (%) ([1]; compound at 1 mM): 53.4%

SMILES: OC[C@H]1O[C@H](O[C@H]2[C@H](O)[C@@H](CO)OC(O)[C@@H]2O)[C@H](O)[C@@H](O)[C@@H]1O (stereo partly drawn) [Nigerose]
- Relative activity (%) [3]: 0%
- Inhibition (%) [4]: 0%

SMILES: CCN(CC)C(=S)S [Diethyldithiocarbamic acid]
- Inhibition (%) ([1]; compound at 1 mM): 51.0%

SMILES: NC(=O)CI [Iodoacetamide]
- Inhibition (%) ([1]; compound at 1 mM): 83.6%
- Inhibition of the enzyme in words ([1]; summary of Table 3): inhibited

SMILES: NO [Hydroxylamine]
- Inhibition (%) ([1]; compound at 1 mM): 81.2%
- Inhibition of the enzyme in words ([1]; summary of Table 3): inhibited

SMILES: O=S(=O)([O-])[O-].[Ni+2] [NiSO4, nickel sulfate]
- Inhibition (%) [1]: 62.1%
- Inhibition of the enzyme in words [1]: inhibited

SMILES: O=C(O)CN(CCN(CC(=O)O)CC(=O)O)CC(=O)O [EDTA, ethylenediaminetetraacetic acid]
- Inhibition (%) [1]: 67.6%
- Inhibition of the enzyme in words [1]: inhibited

SMILES: OC[C@H]1OC(O)[C@H](O)[C@@H](O)[C@H]1O (stereo partly drawn) [D-Galactose]
- Inhibition (%) [2]: 0.2%

SMILES: CCN1C(=O)C=CC1=O [N-Ethylmaleimide]
- Inhibition (%) ([1]; compound at 1 mM): 21.9%

SMILES: O=C(CO)[C@@H](O)[C@H](O)[C@H](O)CO [D-Fructose]
- Inhibition (%) [2]: 0%

SMILES: OC1OC[C@@H](O)[C@H](O)[C@H]1O (stereo partly drawn) [D-Xylose]
- Inhibition (%) [2]: 0%

SMILES: O=C(O)c1cc[c]([Hg][OH])cc1 [p-Mercuribenzoic acid]
- Inhibition (%) ([1]; compound at 1 mM): 94.7%
- Inhibition of the enzyme in words ([1]; summary of Table 3): inhibited

SMILES: N[C@H]1[C@@H](O[C@H]2O[C@H](CO)[C@@H](O)[C@H](O)[C@H]2O)O[C@H](CO)[C@@H](O)[C@@H]1O [Trehalosamine]
- Relative activity (%) [3]: 0.5%

SMILES: OC[C@H]1O[C@H](O[C@H]2O[C@H](CO)[C@@H](O)[C@H](O)[C@H]2O)[C@H](O)[C@@H](O)[C@@H]1O [Trehalose]
- Km ([5]; read-out: Km value of the enzyme): 6.7 mM
- Substrate specificity in words ([3]; conclusion from Table 1): specifically acts on
- Relative activity (%) [3]: 100%

SMILES: OC[C@H]1O[C@@H](O[C@H]2[C@H](O)[C@@H](O)C(O)O[C@@H]2CO)[C@H](O)[C@@H](O)[C@H]1O (stereo partly drawn) [Lactose]
- Relative activity (%) [3]: 0%
- Inhibition (%) [4]: 0%

SMILES: OC[C@H]1O[C@H](O[C@H]2[C@H](O)[C@@H](O)[C@H](O)O[C@@H]2CO)[C@H](O)[C@@H](O)[C@@H]1O [Maltose]
- Relative activity (%) [3]: 0%
- Inhibition (%) [2]: 0%
- Inhibition (%) [4]: 0%

SMILES: C[C@@H]1OC(O)[C@@H](O)[C@H](O)[C@@H]1O (stereo partly drawn) [L-Fucose]
- Inhibition (%) [2]: 0%

SMILES: c1ccc(-c2ccccn2)nc1 [2,2'-Bipyridyl]
- Inhibition (%) ([1]; compound at 1 mM): 60.0%
- Inhibition of the enzyme in words ([1]; summary of Table 3): inhibited

SMILES: OC[C@H]1OC[C@H](O)[C@@H](O)[C@@H]1O [1,5-Anhydroglucitol]
- Relationship between inhibition rate and concentration [6]: good linear relationship
- Relationship between inhibition rate and concentration [7]: good linear relationship
- Relationship between inhibition rate and concentration [8]: good linear relationship
- Ki ([5]; read-out: Ki value of the enzyme): 330 µM
- Relationship between inhibition rate and concentration [9]: good linear relationship
- Specificity of inhibition in words ([2]; conclusion from Table 4): inhibited specifically
- Inhibition (%) [2]: 45.0%
- Relationship between inhibition rate and concentration [10]: good linear relationship
- Inhibition (%) [4]: 80.7%

SMILES: OC[C@H]1O[C@H](O[C@H]2C(O)O[C@H](CO)[C@@H](O)[C@@H]2O)[C@H](O)[C@@H](O)[C@@H]1O (stereo partly drawn) [Kojibiose]
- Relative activity (%) [3]: 0%
- Inhibition (%) [4]: 0%
